Laboratory results reported in US20120252853A1, “Positive allosteric modulators of nicotinic acetylcholine receptor” (H. Lundbeck A/S, priority 2011, published 2012).

Biological target: human α7 receptor (Homo sapiens, UniProt P36544)
Assay: α7 NNR flux assay (FDSS Ca assay)
Assay type: cell-based
Conditions: positive allosteric modulation; rat GH4C1 cell line stably expressing human α7; acetylcholine 20 μM; % modulation relative to PNU-120596 set to 100%
Description: In this version of the assay, the human α7 receptor is stably expressed in the rat GH4C1 cell line. The assay was used to identify positive allosteric modulators (PAMs) of the α7 receptor. Activation of the channel was measured by loading cells with the calcium-sensitive fluorescent dye Calcium-4 (Assay kit from Molecular Devices), and then measuring real-time changes in fluorescence upon treatment with test compounds.
The cell line ChanClone GH4C1-nAChRalpha7 from Genionics was seeded from frozen stock in 384-well plates in culture media 2-3 days before experiment to form an approximately 80% confluent layer on the day of experiment.
The cell culture were split into “22.5 cm×22.5 cm”-plates with approximately 100×10^3 cells/cm^2. After four days incubation in a humidified incubator at 37° C. and 5% CO2, it had grown to an 80-90% confluent layer, and the cells were harvested.
Two or three days before the experiment the cells were seeded in 384 well plates from Greiner bio-one (781946, CELLCOAT, Poly-D-Lysine, black, μClear).
The cells were seeded in 384 well plates with 30 μL/well (30000 cells/well) while stirring the cell suspension or otherwise preventing the cells from precipitating. The plates were incubated at room temperature for 30-45 minutes. The plates were placed in incubator for two days (37° C. and 5% CO2).
The loading buffer was 5% v/v Calcium-4 Kit and 2.5 mM Probenecid in assay buffer.
Culture media were removed from the cell plates and 20 μL loading buffer was added in each well. The cell plates were placed in trays and incubated 90 minutes in the incubator (37° C.). Thereafter the plates were incubated 30 minutes at room temperature, still protected from light. Now the cell plates were ready to run in the Functional Drug Screening System (FDSS) The assay buffer was HBSS with 20 mM HEPES, pH 7.4 and 3 mM CaCl2.
200 nL 10 mM compound solution in DMSO was diluted in 50 μL assay buffer. The final test concentrations in the cell plates were 20-10-5-2.5-1.25-0.625-0.312-0.156-0.078-0.039 μM. Assay buffer and 3 μM PNU-120596 were used for control:
The agonist acetylcholine was added to a final concentration of 20 μM (˜EC100). In the FDSS7000 the Ex480-Em540 was measured with 1 second intervals. The baseline was made of 5 frames before addition of test compounds, and 95 frames more were made before addition of acetylcholine. The measurement stopped 30 frames after the 2nd addition. Raw data for each well were collected as “the maximum fluorescence count” in the interval 100-131 seconds and as “the average fluorescence count” in the interval 96-100 seconds. The positive allosteric modulation in the 2nd addition was the enhancement of agonist response with test compound compared to agonist alone.
Results were calculated as % modulation of test compound compared to the reference PNU-120596 set to 100%.

human α7 receptor, sequence (P36544 23-502): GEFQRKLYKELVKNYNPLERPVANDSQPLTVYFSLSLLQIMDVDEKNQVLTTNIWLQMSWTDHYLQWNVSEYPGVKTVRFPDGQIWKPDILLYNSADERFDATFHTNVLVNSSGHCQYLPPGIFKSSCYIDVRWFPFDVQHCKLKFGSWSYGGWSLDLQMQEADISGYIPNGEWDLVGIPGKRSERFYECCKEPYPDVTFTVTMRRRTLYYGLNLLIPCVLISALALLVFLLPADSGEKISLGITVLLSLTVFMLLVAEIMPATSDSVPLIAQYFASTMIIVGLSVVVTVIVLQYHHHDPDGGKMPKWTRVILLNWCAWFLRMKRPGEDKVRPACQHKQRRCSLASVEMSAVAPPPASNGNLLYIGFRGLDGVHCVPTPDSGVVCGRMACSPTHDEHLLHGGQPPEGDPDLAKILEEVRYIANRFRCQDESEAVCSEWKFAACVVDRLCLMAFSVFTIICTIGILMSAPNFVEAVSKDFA

Row | SMILES | EC50 [µM]
1 | Cc1cc2cc([C@@H](C)NC(=O)c3cnn(C4COC4)c3)ccc2[nH]1 [Compound 52, N-[(1R)-1-(2-methyl-1H-indol-5-yl)ethyl]-1-(oxetan-3-yl)pyrazole-4-carboxamide] | 5.3
2 | Cc1cc(C(=O)N[C@H](C)c2ccc3[nH]c(C)cc3c2F)on1 [Compound 53, N-[(1R)-1-(4-fluoro-2-methyl-1H-indol-5-yl)ethyl]-3-methyl-isoxazole-5-carboxamide] | 6
3 | Cc1cc(C(=O)N[C@@H](C)c2ccc3[nH]c(C)cc3c2F)on1 [Compound 54, N-[(1S)-1-(4-fluoro-2-methyl-1H-indol-5-yl)ethyl]-3-methyl-isoxazole-5-carboxamide] | > 20
4 | Cc1cc(C(=O)NCc2ccc3[nH]c(C)cc3c2)n(C)n1 [Compound 55, 2,5-dimethyl-N-[(2-methyl-1H-indol-5-yl)methyl]pyrazole-3-carboxamide] | 7.3
5 | Cc1cc2cc(CNC(=O)c3onc(C)c3Cl)ccc2[nH]1 [Compound 56, 4-chloro-3-methyl-N-[(2-methyl-1H-indol-5-yl)methyl]isoxazole-5-carboxamide] | 4.3
6 | Cc1cc2cc(CNC(=O)c3cccn3C)ccc2[nH]1 [Compound 57, 1-methyl-N-[(2-methyl-1H-indol-5-yl)methyl]pyrrole-2-carboxamide] | 3.87
7 | Cc1cc(C(=O)NCc2ccc3[nH]ccc3c2)on1 [Compound 58, N-(1H-indol-5-ylmethyl)-3-methyl-isoxazole-5-carboxamide] | 8.57
8 | Cc1c(C(=O)NCc2ccc3[nH]ccc3c2)sc(=O)n1C [Compound 59, N-(1H-indol-5-ylmethyl)-3,4-dimethyl-2-oxo-thiazole-5-carboxamide] | 7.7
9 | Cc1cc2cc(CNC(=O)c3sc(=O)n(C)c3C)ccc2[nH]1 [Compound 60, 3,4-dimethyl-N-[(2-methyl-1H-indol-5-yl)methyl]-2-oxo-thiazole-5-carboxamide] | 4.1
10 | Cc1cc(C(=O)N[C@@H](C)c2ccc3[nH]c(C)cc3c2)on1 [Compound 62, 3-methyl-N-[(1S)-1-(2-methyl-1H-indol-5-yl)ethyl]isoxazole-5-carboxamide] | 9.1
11 | Cc1cc(C(=O)NCc2ccc3c(ccn3C(F)F)c2)on1 [Compound 63, N-[[1-(difluoromethyl)indol-5-yl]methyl]-3-methyl-isoxazole-5-carboxamide] | 5.8
12 | Cc1cc(C(=O)NCc2ccc3c(c2)cc(C)n3C(F)F)on1 [Compound 64] | 9.3
13 | O=C(NCc1ccc2c(ccn2C(F)F)c1)c1cnn(CC(F)(F)F)c1 [Compound 68, N-[[1-(difluoromethyl)indol-5-yl]methyl]-1-(2,2,2-trifluoroethyl)pyrazole-4-carboxamide] | 2.1
14 | Cc1cc2cc(CNC(=O)c3cnn(CC(F)(F)F)c3)ccc2n1C(F)F [Compound 69, N-[[1-(difluoromethyl)-2-methyl-indol-5-yl]methyl]-1-(2,2,2-trifluoroethyl)pyrazole-4-carboxamide] | 4.2
15 | Cc1cc2cc(CNC(=O)c3cc(CC(F)(F)F)no3)ccc2n1C(F)F [Compound 70, N-[[1-(difluoromethyl)-2-methyl-indol-5-yl]methyl]-3-(2,2,2-trifluoroethyl)isoxazole-5-carboxamide] | 9.4
16 | Cc1cc2cc(CNC(=O)c3cnn(C(C)C)c3)ccc2[nH]1 [Compound 71, 1-isopropyl-N-[(2-methyl-1H-indol-5-yl)methyl]pyrazole-4-carboxamide] | 2.9
17 | O=C(NCc1ccc2c(ccn2C(F)F)c1)c1cc(CC(F)(F)F)no1 [Compound 72, N-[[1-(difluoromethyl)indol-5-yl]methyl]-3-(2,2,2-trifluoroethyl)isoxazole-5-carboxamide] | 7.6
18 | [2H]C([2H])([2H])c1cc2cc(CNC(=O)c3cc(C)no3)ccc2[nH]1 [Compound 73, 3-methyl-N-[[2-(trideuteriomethyl)-1H-indol-5-yl]methyl]isoxazole-5-carboxamide] | 2.8
19 | Cc1cc2cc(CNC(=O)c3nnc(C)o3)ccc2[nH]1 [Compound 74, 5-methyl-N-[(2-methyl-1H-indol-5-yl)methyl]-1,3,4-oxadiazole-2-carboxamide] | 6

Row | SMILES | EC50 [µM]
20 | CCc1cc(C(=O)NCc2ccc3[nH]c(C)cc3c2)no1 [Compound 75, 5-ethyl-N-[(2-methyl-1H-indol-5-yl)methyl]isoxazole-3-carboxamide] | 2.1
21 | Cc1cc2cc(CNC(=O)c3coc(C)n3)ccc2[nH]1 [Compound 76, 2-methyl-N-[(2-methyl-1H-indol-5-yl)methyl]oxazole-4-carboxamide] | 8.2
22 | Cc1cc2cc(CNC(=O)c3noc(C)n3)ccc2[nH]1 [Compound 77, 5-methyl-N-[(2-methyl-1H-indol-5-yl)methyl]-1,2,4-oxadiazole-3-carboxamide] | 10.5
23 | [2H]C([2H])([2H])c1cc2cc(CNC(=O)c3cc(CC(F)(F)F)no3)ccc2[nH]1 [Compound 78, N-[[2-(trideuteriomethyl)-1H-indol-5-yl]methyl]-3-(2,2,2-trifluoroethyl)isoxazole-5-carboxamide] | 0.61
24 | Cc1cc2cc(CNC(=O)c3cc(CC(F)(F)F)no3)ccc2[nH]1 [Compound 79] | 0.56
25 | Cc1cc(C(=O)NCc2ccc3c(ccn3C(F)(F)F)c2)on1 [Compound 80, 3-methyl-N-[[1-(trifluoromethyl)indol-5-yl]methyl]isoxazole-5-carboxamide] | 5.7
26 | O=C(NCc1ccc2c(ccn2C(F)(F)F)c1)c1cnn(CC(F)(F)F)c1 [Compound 81, 1-(2,2,2-trifluoroethyl)-N-[[1-(trifluoromethyl)indol-5-yl]methyl]pyrazole-4-carboxamide] | 6
27 | [2H]C([2H])([2H])c1cc2cc(CNC(=O)c3cnn(CC(F)(F)F)c3)ccc2[nH]1 [Compound 82] | 0.98
28 | Cc1cc2cc(CNC(=O)c3cnn(CC(F)(F)F)c3)ccc2n1C(F)(F)F [Compound 83, N-[[2-methyl-1-(trifluoromethyl)indol-5-yl]methyl]-1-(2,2,2-trifluromethyl)pyrazole-4-carboxamide] | 11
29 | Cc1cc(C(=O)NCc2ccc3c(c2)cc(C)n3C(F)(F)F)on1 [Compound 84, 3-methyl-N-[[2-methyl-1-(trifluoromethyl)indol-5-yl]methyl]isoxazole-5-carboxamide] | 6
30 | Cc1cc2cc(CNC(=O)c3cc(CC(F)(F)F)no3)ccc2n1C(F)(F)F [Compound 85, N-[[2-methyl-1-(trifluoromethyl)indol-5-yl]methyl]-3-(2,2,2-trifluoroethyl)isoxazole-5-carboxamide] | 7.7
31 | Cc1cc2cc(CNC(=O)c3cc(C(C)(C)C)on3)ccc2[nH]1 [Compound 87, 5-tert-butyl-N-[(2-methyl-1H-indol-5-yl)methyl]isoxazole-3-carboxamide] | 2.6
32 | Cn1c(C(F)(F)F)cc2cc(CNC(=O)c3cnn(CC(F)(F)F)c3)ccc21 [Compound 88, N-[[1-methyl-2-(trifluoromethyl)indol-5-yl]methyl]-1-(2,2,2-trifluoroethyl)pyrazole-4-carboxamide] | 6.2
33 | Cc1cc(C(=O)NCc2ccc3c(c2)cc(C(F)(F)F)n3C)on1 [Compound 89, 3-methyl-N-[[1-methyl-2-(trifluoromethyl)indol-5-yl]methyl]isoxazole-5-carboxamide] | 5.6
34 | Cn1c(C(F)(F)F)cc2cc(CNC(=O)c3cc(CC(F)(F)F)no3)ccc21 [Compound 90, N-[[1-methyl-2-(trifluoromethyl)indol-5-yl]methyl]-3-(2,2,2-trifluoroethyl)isoxazole-5-carboxamide] | 5
35 | O=C(NCc1ccc2[nH]c(C(F)F)cc2c1)c1cnn(CC(F)(F)F)c1 [Compound 91, N-[[2-(difluoromethyl)-1H-indol-5-yl]methyl]-1-(2,2,2-trifluoroethyl)pyrazole-4-carboxamide] | 1.7
36 | Cc1cc(C(=O)NCc2ccc3[nH]c(C(F)F)cc3c2)on1 [Compound 92, N-[[2-(difluoromethyl)-1H-indol-5-yl]methyl]-3-methyl-isoxazole-5-carboxamide] | 8.3
37 | O=C(NCc1ccc2[nH]c(C(F)F)cc2c1)c1cc(CC(F)(F)F)no1 [Compound 93, N-[[2-(difluoromethyl)-1H-indol-5-yl]methyl]-3-(2,2,2-trifluoroethyl)isoxazole-5-carboxamide] | 5.4
